Measured values taken from patent US9708314B2, “Heterocyclic amide compound” (NISSAN CHEMICAL INDUSTRIES, LTD., priority 2013, dated 2017).

Experiments:
Format in all cases: in vivo
Glycine max = experiment: Test Example 4: effect on crop by application to foliage (diluvial soil, plastic box); conditions: for c (Glycine max) effect on crop: application to foliage, application herbicide amount 320 g/ha
In short: (§1)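 Read-out is a 0–5 visual grade of herbicidal ratio (5: ≥90%, almost withered; 0: ≤5%) taken three weeks after treatment. Compound was applied as a diluted emulsion to stem and leaf parts of 14-day greenhouse-grown plants (25° C. to 30° C.) at rates expressed as g/ha.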

[1] = tested on: directly sowed Oryza sativa; experiment: as above; conditions: for d (directly sowed Oryza sativa) effect on crop: application to foliage, application herbicide amount 320 g/ha
In short: as §1

Brassica campestris L. = experiment: as above; conditions: for g (Brassica campestris L.) effect on crop: application to foliage, application herbicide amount 320 g/ha
In short: as §1

Zea mays = experiment: as above; conditions: for b (Zea mays) effect on crop: application to foliage, application herbicide amount 320 g/ha
In short: as §1

[2] = tested on: Beta vulgaris ssp. vulgaris; experiment: as above; conditions: application to foliage, application herbicide amount 320 g/ha
In short: as §1

Triticum aestivum = experiment: as above; conditions: for e (Triticum aestivum) effect on crop: application to foliage, application herbicide amount 320 g/ha
In short: as §1

Monochoria vaginalis = experiment: Test Example 1: herbicidal activity, application before weed generation in submerged conditions; conditions: Application herbicide amount 320 g/ha; Seventeenth Table
Text: (§2) [Test Example 1] Herbicidal Activity Test by Application Before Weed Generation in Submerged Conditions After alluvial soil was placed into 1/10000 are of Wagner pot, water was poured and mixed to form a submerged condition having a water depth of 4 cm. Seeds of Echinochloa oryzacola Vasing., Scirpus juncoides, and Monochoria vaginalis were sowed in a mixed manner in the above pot and thereafter 2.5 leaf stage Oryza sativa seedling was transplanted. On the day of sowing seeds, the emulsion agent containing the compound of the present invention prepared in accordance with Formulation Example 2 was diluted with water so as to be a predetermined herbicide amount and the diluted compound was applied to the surface of the water. The pot was placed in a greenhouse of 25° C. to 30° C. to grow plant. Three weeks after the herbicide application, effects on each plant were investigated in accordance with the following criteria. Criteria 5 Herbicidal ratio of 90% or more (almost completely withered) 4 Herbicidal ratio of 70% or more and less than 90% 3 Herbicidal ratio of 40% or more and less than 70% 2 Herbicidal ratio of 20% or more and less than 40% 1 Herbicidal ratio of 5% or more and less than 20% 0 Herbicidal ratio of 5% or less (almost no effect) A: Echinochloa oryzicola Vasing., B: Scirpus juncoides, C: Monochoria vaginalis, D: Leptochloa chinensis, E: Cyperus difformis, F: Digitaria ciliaris, G: Setaria viridis, H: Echinochloa crus-galli var. crus-galli, I: Avena fatua, J: Alopecurus myosuroides, K: Lolium multiflorum Lam., L: Apera spica-venti., M: Abutilon theophrasti, N: Amaranthus retroflexus, O: Chenopodium album, P: Stellaria media, Q: Galium spurium, R: Veronica persica, a: transplanted Oryza sativa, b: directly sowed Oryza sativa, c: Zea mays, d: Glycine max, e: Triticum aestivum, f: Beta vulgaris ssp. vulgaris, and g: Brassica campestris L. The application herbicide amount (g/ha) means an amount that a concentration is adjusted so that, when an application amount is converted into per hectare (1 ha), the herbicide is applied by the number of grams (g) of the described value.

[3] = tested on: Echinochloa oryzacola Vasing.; experiment: as above; conditions: Application herbicide amount 320 g/ha; Seventeenth Table
Text: as §2

Scirpus juncoides = experiment: as above; conditions: Application herbicide amount 320 g/ha; Seventeenth Table
Text: as §2

[4] = tested on: transplanted Oryza sativa; experiment: Test Example 1: effect on crop, application before weed generation in submerged conditions; conditions: Application herbicide amount 320 g/ha; Seventeenth Table
Text: as §2

[5] = Application herbicide amount 320 g/ha, effect on crop

| Structure (SMILES) | c (Glycine max) effect on crop (Glycine max) | d (directly sowed Oryza sativa) effect on crop [1] | g (Brassica campestris L.) effect on crop (Brassica campestris L.) | b (Zea mays) effect on crop (Zea mays) | f (Beta vulgaris ssp. vulgaris) effect on crop [2] | e (Triticum aestivum) effect on crop (Triticum aestivum) | C: Monochoria vaginalis (herbicidal effect grade) (Monochoria vaginalis) | A: Echinochloa oryzicola Vasing. (herbicidal effect grade) [3] | B: Scirpus juncoides (herbicidal effect grade) (Scirpus juncoides) | a: transplanted Oryza sativa (effect on crop grade) [4] | c (Glycine max; [5]) | d [1, 5] | g (Brassica campestris L.; [5]) | b (Zea mays; [5]) | e (Triticum aestivum; [5]) |
| --- | --- | --- | --- | --- | --- | --- | --- | --- | --- | --- | --- | --- | --- | --- | --- |
| Cc1nnc(NC(=O)c2ccc(C(F)(F)F)n3cnnc23)o1 [1-001] | 0 (Herbicidal ratio of 5% or less (almost no effect)) | 3 (Herbicidal ratio of 40% or more and less than 70%) | 4 (Herbicidal ratio of 70% or more and less than 90%) | 0 (Herbicidal ratio of 5% or less (almost no effect)) | 4 (Herbicidal ratio of 70% or more and less than 90%) | 1 (Herbicidal ratio of 5% or more and less than 20%) | 2 (Herbicidal ratio of 20% or more and less than 40%) | 3 (Herbicidal ratio of 40% or more and less than 70%) | 2 (Herbicidal ratio of 20% or more and less than 40%) | 0 (Herbicidal ratio of 5% or less (almost no effect)) | – | – | – | – | – |
| Cc1nnc(NC(=O)c2ccc(C(F)(F)F)n3c(C)nnc23)o1 [1-002] | 0 (Herbicidal ratio of 5% or less (almost no effect)) | 3 (Herbicidal ratio of 40% or more and less than 70%) | 4 (Herbicidal ratio of 70% or more and less than 90%) | 0 (Herbicidal ratio of 5% or less (almost no effect)) | 5 (Herbicidal ratio of 90% or more (almost completely withered)) | 1 (Herbicidal ratio of 5% or more and less than 20%) | 0 (Herbicidal ratio of 5% or less (almost no effect)) | 2 (Herbicidal ratio of 20% or more and less than 40%) | 1 (Herbicidal ratio of 5% or more and less than 20%) | 0 (Herbicidal ratio of 5% or less (almost no effect)) | – | – | – | – | – |
| Cc1nnc(NC(=O)c2ccc(C(F)(F)F)n3c(C(C)C)nnc23)o1 [1-004, 3-Isopropyl-N-(5-methyl-1,3,4-oxadiazol-2-yl)-5-(trifluoromethyl)-[1,2,4]triazolo[4,3-a]pyridine-8-carboxamide] | 4 (Herbicidal ratio of 70% or more and less than 90%) | 4 (Herbicidal ratio of 70% or more and less than 90%) | 3 (Herbicidal ratio of 40% or more and less than 70%) | 0 (Herbicidal ratio of 5% or less (almost no effect)) | 4 (Herbicidal ratio of 70% or more and less than 90%) | 2 (Herbicidal ratio of 20% or more and less than 40%) | 4 (Herbicidal ratio of 70% or more and less than 90%) | 5 (Herbicidal ratio of 90% or more (almost completely withered)) | 4 (Herbicidal ratio of 70% or more and less than 90%) | 1 (Herbicidal ratio of 5% or more and less than 20%) | – | – | – | – | – |
| Cc1nnc(NC(=O)c2ccc(C(F)(F)F)n3c(Nc4ccccc4)nnc23)o1 [1-082] | – | – | – | – | – | – | 2 (Herbicidal ratio of 20% or more and less than 40%) | 3 (Herbicidal ratio of 40% or more and less than 70%) | 2 (Herbicidal ratio of 20% or more and less than 40%) | 0 (Herbicidal ratio of 5% or less (almost no effect)) | 0 (Herbicidal ratio of 5% or less (almost no effect)) | 3 (Herbicidal ratio of 40% or more and less than 70%) | 0 (Herbicidal ratio of 5% or less (almost no effect)) | 0 (Herbicidal ratio of 5% or less (almost no effect)) | 0 (Herbicidal ratio of 5% or less (almost no effect)) |
